Reference: patent US4328359A, “15-Deoxy-16-substituted-19-chloro-20-nor-prostane derivatives of the E and F series” (American Cyanamid Company, priority 1981, dated 1982)

Key:
Assay type in all cases: in vivo
[1] = test system: bronchospasms elicited by intravenous injections of acetylcholine; assay: Konzett procedure: bronchodilator activity in Guinea-Pigs, acetylcholine-induced bronchospasm; settings: Cavia porcellus, spasmogen acetylcholine, three logarithmic cumulative intravenous doses
Description: (§1) The bronchodilator activity for representative compounds of this invention was determined in Guinea-Pigs against bronchospasms elicited by intravenous injections of serotonin, histamine, and acetylcholine, by the Konzett procedure, the details of which are those discussed by J. Lulling, P. Lievens, F. El Sayed and J. Prignot, Arzeimittel-Forschung 18, 995 (1968).
(§2) In the table which follows, bronchodilator activity for representative compounds of the invention against spasmogenic agents serotonin, histamine, and acetylcholine is expressed as an ED50 determined from the results obtained with three logarithmic cumulative intravenous doses.

[2] = test system: bronchospasms elicited by intravenous injections of histamine; assay: Konzett procedure: bronchodilator activity in Guinea-Pigs, histamine-induced bronchospasm; settings: Cavia porcellus, spasmogen histamine, three logarithmic cumulative intravenous doses
Description: as §1, §2

[3] = test system: bronchospasms elicited by intravenous injections of serotonin; assay: Konzett procedure: bronchodilator activity in Guinea-Pigs, serotonin-induced bronchospasm; settings: Cavia porcellus, spasmogen serotonin, three logarithmic cumulative intravenous doses
Description: as §1, §2

O=C(O)CCC/C=C\C[C@H]1C(=O)C[C@@H](O)[C@@H]1/C=C/CC(O)CCCCl (relative stereo) [dl 11α,16-dehydroxy-9-oxo-19-chloro-20-nor-5-cis,13-trans prostadienoic acid]
ED50 [1]: 6.8 µg/kg | ED50 [2]: 4.4 µg/kg | ED50 [3]: 4.65 µg/kg
